pIC50: −log10 of the molar value.
Columns and labels:
human ACSS2 protein = biological target: T1, human ACSS2 protein (Homo sapiens, UniProt Q9NR19); experiment: ACSS2 cell-free activity assay (pyrophosphatase-coupled, Biomol green); details: 10 nM human ACSS2, 90 minutes at 37 C, absorbance at 620 nm; read-out: ACSS2 Biochemical IC50
T1 construct: purchased OriGene Technologies, Inc
Outline: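 10 nM human ACSS2 incubated 90 min at 37 C with compound, 300 μM ATP, 10 μM CoA, 5 mM NaAc in pH 7.5 Hepes buffer with 0.5 U/ml pyrophosphatase. Released phosphate detected with Biomol Green at 620 nm; IC50 by non-linear regression constrained to 0% and 100%.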

human ACSS1 protein = biological target: T2, human ACSS1 protein (Homo sapiens, UniProt Q9NUB1); experiment: ACSS1 cell-free activity assay (pyrophosphatase-coupled, Biomol green); assay type: biochemical; details: 5 nM human ACSS1, 30 minutes at room temperature, absorbance at 620 nm; for pIC50: read-out: ACSS1 Biochemical IC50
T2 construct: purchased MyBioSource
T2 sequence (Q9NUB1 38-689): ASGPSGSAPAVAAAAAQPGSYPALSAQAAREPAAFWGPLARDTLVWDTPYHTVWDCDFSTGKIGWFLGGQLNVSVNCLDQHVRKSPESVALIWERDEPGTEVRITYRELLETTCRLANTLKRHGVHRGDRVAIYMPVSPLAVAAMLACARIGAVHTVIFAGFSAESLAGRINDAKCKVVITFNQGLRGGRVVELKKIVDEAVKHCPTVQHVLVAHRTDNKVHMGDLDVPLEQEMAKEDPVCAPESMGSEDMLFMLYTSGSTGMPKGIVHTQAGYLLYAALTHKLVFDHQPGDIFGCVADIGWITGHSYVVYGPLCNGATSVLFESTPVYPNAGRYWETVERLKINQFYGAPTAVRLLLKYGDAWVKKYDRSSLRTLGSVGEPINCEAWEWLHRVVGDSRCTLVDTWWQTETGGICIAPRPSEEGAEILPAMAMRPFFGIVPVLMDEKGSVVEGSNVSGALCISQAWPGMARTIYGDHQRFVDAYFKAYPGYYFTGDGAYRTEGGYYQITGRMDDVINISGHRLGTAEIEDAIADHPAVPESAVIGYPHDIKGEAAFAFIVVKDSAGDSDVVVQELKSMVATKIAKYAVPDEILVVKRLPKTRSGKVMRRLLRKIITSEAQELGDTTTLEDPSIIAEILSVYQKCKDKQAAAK
Outline: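 5 nM human ACSS1 incubated 30 min at RT with compound in pH 7.5 Hepes buffer with 15 μM CoA, 5 mM acetate, 300 μM ATP, 2 mM MgCl2 and pyrophosphatase. Released phosphate detected with Biomol Green (30 min), absorbance 620 nm. IC50 from constrained non-linear regression.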

[1] = biological target: T3, ACSS2 in MDA-MB-468 cells (Homo sapiens, UniProt Q9NR19); experiment: Cellular fatty-acid IC50: 13C-acetate incorporation into fatty acids (palmitate), LC-MS; assay type: cell-based; details: hypoxic conditions (1% O2), 75% charcoal stripped serum, 5 hours, 13C-acetate into palmitate, read-out: Cellular Fatty-acid IC50 High Serum MDA468
T3 construct: endogenous in cells; host or cells: MDA-MB-468 cells, hypoxia (1% O2)
T3 sequence (Q9NR19 whole entry): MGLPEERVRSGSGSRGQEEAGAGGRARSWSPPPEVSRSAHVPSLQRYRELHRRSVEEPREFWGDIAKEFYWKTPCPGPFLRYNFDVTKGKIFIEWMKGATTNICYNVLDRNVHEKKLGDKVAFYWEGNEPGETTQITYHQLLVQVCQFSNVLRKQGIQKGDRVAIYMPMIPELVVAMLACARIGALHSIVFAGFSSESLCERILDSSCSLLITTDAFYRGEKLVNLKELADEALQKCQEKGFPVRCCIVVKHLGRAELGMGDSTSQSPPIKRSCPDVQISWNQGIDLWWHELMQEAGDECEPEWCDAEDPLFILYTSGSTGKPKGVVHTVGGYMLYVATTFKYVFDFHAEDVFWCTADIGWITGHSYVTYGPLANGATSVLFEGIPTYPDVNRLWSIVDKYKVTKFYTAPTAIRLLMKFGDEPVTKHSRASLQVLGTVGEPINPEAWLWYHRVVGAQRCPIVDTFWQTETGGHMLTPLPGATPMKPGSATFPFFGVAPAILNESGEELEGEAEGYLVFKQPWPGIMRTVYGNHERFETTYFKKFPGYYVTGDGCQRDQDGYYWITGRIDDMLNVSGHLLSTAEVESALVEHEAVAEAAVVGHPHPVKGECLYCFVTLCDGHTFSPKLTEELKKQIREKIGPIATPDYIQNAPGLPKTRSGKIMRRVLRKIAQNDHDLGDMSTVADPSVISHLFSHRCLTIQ
Description: Cellular Fatty-Acid IC50 Determination:
The cellular activity of ACSS2 was measured in MDA-MB-468 cells under hypoxic conditions by tracing the incorporation of labelled carbons from ^13C-acetate into newly synthesized fatty acids. The assay was performed using 75% charcoal stripped serum (high serum conditions).
MDA-MB-468 cells were seeded in 12-well plates (0.35×10^6 cells per well) in plating medium (Dulbecco's Modified Eagle Medium containing 25 mM D-glucose, 1 mM sodium pyruvate, 10% v/v fetal bovine serum, and 2 mM glutamine) and incubated for 24 hours under hypoxic conditions (1% O2).
The next day, tracing medium containing DMEM (01-057-1A) containing 75% charcoal stripped serum (Biological industries 04-201-1A), 3.5 μg/mL Biotin (Sigma-Aldrich B4639), 1 mM Pyruvate, 5.5 mM Glucose, 0.65 mM Glutamine and 0.5 mM ^13C-Acetate (Sigma-Aldrich #282014) with serial dilutions of the compounds in the range of 0.000512-1000 nM were prepared. The plating medium was replaced with 1 mL tracing medium plus compounds and the cells were incubated for 5 hours under hypoxic conditions (1% O2). Plating medium in control wells (without cells or without compounds) was replaced with 1 mL tracing medium containing 0.01% v/v DMSO.
The level of ^13C-acetate incorporation into fatty acids (palmitate) was measured by LC-MS analysis and IC50 as described below:
Sample Preparation for LC-MS
• a) Cells were washed twice with cold phosphate buffered saline (PBS), scraped into 0.5 mL EDTA pH 8.0, and transferred into 1.1 mL V-shaped HPLC glass tubes. • b) The cell suspensions were centrifuged for 5 minutes at 400×g, 4° C. and the supernatants were removed. • c) Cell pellets were frozen at −80° C.
• d) Cell pellets were resuspended in 0.2 mL of 80% v/v ethanol in water containing 0.02 M NaOH in 1.1 ml glass (v-bottom) HPLC vials. • e) The vials were closed tight and incubated at 66° C. for 60 minutes. • f) Acetonitrile containing 2% v/v formic acid (150 μL) was added to each vial and the mixtures were transferred to Eppendorf tubes for centrifugation at 17 000×g for 20 minutes. • g) Supernatants were transferred to LC-MS vials.
The relative palmitate concentration was measured by LC-MS in reconstructed selected ion monitoring (RSIM) mode and negative ion mode. Samples were analyzed on a Phenomenex Kinetex 2.6 μm XB-C18 150×2.1 mm column at 45° C. (0.4 mL/minute flow rate) using: • a) A gradient from 15% A/85% C to 100% C for 0 to 2 minutes (A: water containing 5% v/v acetonitrile, 10 mM ammonium acetate, and 10 mM acetic acid; C: a mixture of 50% v/v acetonitrile and 50% v/v methanol). • b) Isocratic flow (100% C) for 2 to 5 minutes. • c) Equilibration in isocratic conditions (15% A/85% C) for 5 to 8 minutes.
Palmitate was eluted at approximately 3.4 minutes.
The percent inhibition was calculated relative to the sample without compound and after background deduction. IC50 values were calculated using non-linear regression curve fit analysis with 0% and 100% constraints (CDD Vault, Collaborative Drug Discovery, Inc. or GraphPad Prism).
The inhibitory activities of each compound against ACSS2 in MDA-MB-468 cells under high serum conditions, as determined by ^13C-acetate incorporation into fatty acids (palmitate), are presented in Table 2.

T1 sequence (Q9NR19 whole entry): as above

CNC(=O)c1cccc(NC(=O)c2c(C)[nH]c(-c3ccc(OC)c(-c4c(C)cccc4C)c3)[n+]2[O-])c1 [Compound 146, 2-(6-methoxy-2′,6′-dimethyl-[1,1′-biphenyl]-3-yl)-5-methyl-4-((3-(methylcarbamoyl)phenyl)carbamoyl)-1H-imidazole 3-oxide]
pIC50 (human ACSS2 protein): > 9.00
ACSS1 Biochemical IC50 (nM) (human ACSS1 protein): Inactive
pIC50 [1]: > 7.70

CNC(=O)c1cccc(NC(=O)c2c(C)[nH]c(-c3cc(N)cc(-c4c(C)cccc4C)c3)[n+]2[O-])c1 [Compound 180, 2-(5-amino-2′,6′-dimethyl-[1,1′-biphenyl]-3-yl)-5-methyl-4-((3-(methylcarbamoyl)phenyl)carbamoyl)-1H-imidazole 3-oxide]
pIC50 (human ACSS2 protein): > 9.00
pIC50 (human ACSS1 protein): < 7.52
pIC50 [1]: > 7.70

COc1ccc(-c2[nH]c(C)c(C(=O)Nc3cccc(C(F)(F)F)c3)[n+]2[O-])cc1-c1c(C)cccc1C [Compound 171, 2-(6-methoxy-2′,6′-dimethyl-[1,1′-biphenyl]-3-yl)-5-methyl-4-((3-(trifluoromethyl)phenyl)carbamoyl)-1H-imidazole 3-oxide]
pIC50 (human ACSS2 protein): > 9.00
ACSS1 Biochemical IC50 (nM) (human ACSS1 protein): Inactive
pIC50 [1]: > 7.70

Cc1cccc(C)c1-c1cc(-c2[nH]c(C)c(C(=O)Nc3cccc(C(F)(F)C4CC4)c3)[n+]2[O-])ccc1OC(F)F [Compound 113, N-[3-[cyclopropyl(difluoro)methyl]phenyl]-2-[4-(difluoromethoxy)-3-(2,6-dimethylphenyl)phenyl]-5-methyl-3-oxido-1H-imidazol-3-ium-4-carboxamide]
pIC50 (human ACSS2 protein): > 9.00
ACSS1 Biochemical IC50 (nM) (human ACSS1 protein): Inactive
pIC50 [1]: 7.30 to 7.70

CCC(F)(F)c1cccc(NC(=O)c2c(C)[nH]c(-c3cc(-c4c(C)cccc4C)c(OC)cc3O)[n+]2[O-])c1 [Compound 123, 4-((3-(1,1-difluoropropyl)phenyl)carbamoyl)-2-(4-hydroxy-6-methoxy-2′,6′-dimethyl-[1,1′-biphenyl]-3-yl)-5-methyl-1H-imidazole 3-oxide]
pIC50 (human ACSS2 protein): > 9.00
ACSS1 Biochemical IC50 (nM) (human ACSS1 protein): Inactive
pIC50 [1]: > 7.70

CCC(F)(F)c1cccc(NC(=O)c2c(C)[nH]c(-c3cc(-c4c(C)cccc4C)c(OC)cc3N)[n+]2[O-])c1 [Compound 124]
pIC50 (human ACSS2 protein): > 9.00
ACSS1 Biochemical IC50 (nM) (human ACSS1 protein): Inactive
pIC50 [1]: < 7.30

CNC(=O)c1cccc(NC(=O)c2c(C)[nH]c(-c3ccnc(-c4c(C)cccc4C)c3)[n+]2[O-])c1 [Compound 178, 2-(2-(2,6-dimethylphenyl)pyridin-4-yl)-5-methyl-4-((3-(methylcarbamoyl)phenyl)carbamoyl)-1H-imidazole 3-oxide]
pIC50 (human ACSS2 protein): > 9.00
pIC50 (human ACSS1 protein): < 7.52
pIC50 [1]: > 7.70

CCC(F)(F)c1cccc(NC(=O)c2c(C)[nH]c(-c3ccc(OC)c(-c4c(C)cccc4C)n3)[n+]2[O-])c1 [Compound 149, 4-((3-(1,1-difluoropropyl)phenyl)carbamoyl)-2-(6-(2,6-dimethylphenyl)-5-methoxypyridin-2-yl)-5-methyl-1H-imidazole 3-oxide]
pIC50 (human ACSS2 protein): > 9.00
ACSS1 Biochemical IC50 (nM) (human ACSS1 protein): Inactive
pIC50 [1]: > 7.70

Cc1cccc(C)c1-c1cc(-c2[nH]c(C)c(C(=O)Nc3cccc(C(F)(F)C4CC4)c3)[n+]2[O-])cc(C(C)O)c1 (stereo not drawn) [Compound 143, 4-((3-(cyclopropyldifluoromethyl)phenyl)carbamoyl)-2-(5-(1-hydroxyethyl)-2′,6′-dimethyl-[1,1′-biphenyl]-3-yl)-5-methyl-1H-imidazole 3-oxide]
pIC50 (human ACSS2 protein): > 9.00
ACSS1 Biochemical IC50 (nM) (human ACSS1 protein): Inactive
pIC50 [1]: 7.30 to 7.70

CNC(=O)c1cccc(NC(=O)c2c(C)[nH]c(-c3ccc(OC)c(-c4c(C)cccc4C)n3)[n+]2[O-])c1 [Compound 186, 2-(6-(2,6-dimethylphenyl)-5-methoxypyridin-2-yl)-5-methyl-4-((3-(methylcarbamoyl)phenyl)carbamoyl)-1H-imidazole 3-oxide]
pIC50 (human ACSS2 protein): > 9.00
ACSS1 Biochemical IC50 (nM) (human ACSS1 protein): Inactive
pIC50 [1]: > 7.70

Cc1cccc(C)c1-c1cc(CN(C)C)cc(-c2[nH]c(C)c(C(=O)Nc3cccc(C(F)(F)C4CC4)c3)[n+]2[O-])c1 [Compound 175, 4-((3-(cyclopropyldifluoromethyl)phenyl)carbamoyl)-2-(5-((dimethylamino)methyl)-2′,6′-dimethyl-[1,1′-biphenyl]-3-yl)-5-methyl-1H-imidazole 3-oxide]
pIC50 (human ACSS2 protein): > 9.00
ACSS1 Biochemical IC50 (nM) (human ACSS1 protein): Inactive
pIC50 [1]: > 7.70

CCC(F)(F)c1cccc(NC(=O)c2c(C)[nH]c(-c3cccc(-c4c(C)ncnc4C)c3)[n+]2[O-])c1 [Compound 112, 4-((3-(1,1-difluoropropyl)phenyl)carbamoyl)-2-(3-(4,6-dimethylpyrimidin-5-yl)phenyl)-5-methyl-1H-imidazole 3-oxide]
pIC50 (human ACSS2 protein): > 9.00
pIC50 (human ACSS1 protein): < 7.52
pIC50 [1]: > 7.70

COc1ccc(-c2[nH]c(C)c(C(=O)Nc3cccc(C(F)(F)C4CC4)c3)[n+]2[O-])cc1-c1c(C)cncc1C [Compound 105, 4-((3-(cyclopropyldifluoromethyl)phenyl)carbamoyl)-2-(3-(3,5-dimethylpyridin-4-yl)-4-methoxyphenyl)-5-methyl-1H-imidazole 3-oxide]
pIC50 (human ACSS2 protein): > 9.00
ACSS1 Biochemical IC50 (nM) (human ACSS1 protein): Inactive
pIC50 [1]: > 7.70

COc1cc(F)c(-c2[nH]c(C)c(C(=O)Nc3cccc(C(F)(F)C4CC4)c3)[n+]2[O-])nc1-c1c(C)cccc1C [Compound 202, 4-((3-(cyclopropyldifluoromethyl)phenyl)carbamoyl)-2-(6-(2,6-dimethylphenyl)-3-fluoro-5-methoxypyridin-2-yl)-5-methyl-1H-imidazole 3-oxide]
pIC50 (human ACSS2 protein): > 9.00
ACSS1 Biochemical IC50 (nM) (human ACSS1 protein): Inactive
pIC50 [1]: < 7.30

— patent US20230174507A1, “IMIDAZOLE 3-OXIDE DERIVATIVE BASED ACSS2 INHIBITORS AND METHODS OF USE THEREOF” (METABOMED LTD., priority 2020, published 2023)
